According to ChEMBL document CHEMBL1140726, “Discovery and biological evaluation of 5-aryl-2-furfuramides, potent and selective blockers of the Nav1.8 sodium channel with efficacy in models of neuropathic and inflammatory pain” (J Med Chem, 2008):

Experiments:
[1] = molecular target: Sodium channel protein type 10 subunit alpha (Mus musculus, UniProt Q6QIY3); experiment: Inhibition of mouse recombinant Nav 1.8 channel expressed in HEK293 cells by isotopic efflux assay; format: cell-based
[2] = Intrinsic clearance in Sprague-Dawley rat microsomes after 1 hr; format: ADME, Liver, Microsome
[3] = Activity at rat dorsal root ganglion in inactivated state with prepulse voltage of -40 mV assessed as blockade of TTx-resistant sodium current at 0.3 uM by whole-cell patch clamp technique; format: functional
[4] = Activity at rat dorsal root ganglion in inactivated state with prepulse voltage of -40 mV assessed as blockade of TTx-resistant sodium current at 0.1 uM by whole-cell patch clamp technique; format: functional
[5] = Activity at rat dorsal root ganglion in resting state with prepulse voltage of -100 mV assessed as blockade of TTx-resistant sodium current at 0.3 uM by whole-cell patch clamp technique; format: functional
[6] = Activity at rat dorsal root ganglion in resting state with prepulse voltage of -100 mV assessed as blockade of TTx-resistant sodium current at 0.1 uM by whole-cell patch clamp technique; format: functional
[7] = molecular target: T1, Sodium channel protein type 10 subunit alpha (Homo sapiens, UniProt Q9Y5Y9); experiment: Activity at human recombinant Nav 1.8 channel expressed in HEK293 cells in inactivated state with prepulse voltage of -40 mV assessed as blockade of TTx-resistant sodium current at 0.01 uM; format: cell-based
T1 sequence (Q9Y5Y9 whole entry, looked up): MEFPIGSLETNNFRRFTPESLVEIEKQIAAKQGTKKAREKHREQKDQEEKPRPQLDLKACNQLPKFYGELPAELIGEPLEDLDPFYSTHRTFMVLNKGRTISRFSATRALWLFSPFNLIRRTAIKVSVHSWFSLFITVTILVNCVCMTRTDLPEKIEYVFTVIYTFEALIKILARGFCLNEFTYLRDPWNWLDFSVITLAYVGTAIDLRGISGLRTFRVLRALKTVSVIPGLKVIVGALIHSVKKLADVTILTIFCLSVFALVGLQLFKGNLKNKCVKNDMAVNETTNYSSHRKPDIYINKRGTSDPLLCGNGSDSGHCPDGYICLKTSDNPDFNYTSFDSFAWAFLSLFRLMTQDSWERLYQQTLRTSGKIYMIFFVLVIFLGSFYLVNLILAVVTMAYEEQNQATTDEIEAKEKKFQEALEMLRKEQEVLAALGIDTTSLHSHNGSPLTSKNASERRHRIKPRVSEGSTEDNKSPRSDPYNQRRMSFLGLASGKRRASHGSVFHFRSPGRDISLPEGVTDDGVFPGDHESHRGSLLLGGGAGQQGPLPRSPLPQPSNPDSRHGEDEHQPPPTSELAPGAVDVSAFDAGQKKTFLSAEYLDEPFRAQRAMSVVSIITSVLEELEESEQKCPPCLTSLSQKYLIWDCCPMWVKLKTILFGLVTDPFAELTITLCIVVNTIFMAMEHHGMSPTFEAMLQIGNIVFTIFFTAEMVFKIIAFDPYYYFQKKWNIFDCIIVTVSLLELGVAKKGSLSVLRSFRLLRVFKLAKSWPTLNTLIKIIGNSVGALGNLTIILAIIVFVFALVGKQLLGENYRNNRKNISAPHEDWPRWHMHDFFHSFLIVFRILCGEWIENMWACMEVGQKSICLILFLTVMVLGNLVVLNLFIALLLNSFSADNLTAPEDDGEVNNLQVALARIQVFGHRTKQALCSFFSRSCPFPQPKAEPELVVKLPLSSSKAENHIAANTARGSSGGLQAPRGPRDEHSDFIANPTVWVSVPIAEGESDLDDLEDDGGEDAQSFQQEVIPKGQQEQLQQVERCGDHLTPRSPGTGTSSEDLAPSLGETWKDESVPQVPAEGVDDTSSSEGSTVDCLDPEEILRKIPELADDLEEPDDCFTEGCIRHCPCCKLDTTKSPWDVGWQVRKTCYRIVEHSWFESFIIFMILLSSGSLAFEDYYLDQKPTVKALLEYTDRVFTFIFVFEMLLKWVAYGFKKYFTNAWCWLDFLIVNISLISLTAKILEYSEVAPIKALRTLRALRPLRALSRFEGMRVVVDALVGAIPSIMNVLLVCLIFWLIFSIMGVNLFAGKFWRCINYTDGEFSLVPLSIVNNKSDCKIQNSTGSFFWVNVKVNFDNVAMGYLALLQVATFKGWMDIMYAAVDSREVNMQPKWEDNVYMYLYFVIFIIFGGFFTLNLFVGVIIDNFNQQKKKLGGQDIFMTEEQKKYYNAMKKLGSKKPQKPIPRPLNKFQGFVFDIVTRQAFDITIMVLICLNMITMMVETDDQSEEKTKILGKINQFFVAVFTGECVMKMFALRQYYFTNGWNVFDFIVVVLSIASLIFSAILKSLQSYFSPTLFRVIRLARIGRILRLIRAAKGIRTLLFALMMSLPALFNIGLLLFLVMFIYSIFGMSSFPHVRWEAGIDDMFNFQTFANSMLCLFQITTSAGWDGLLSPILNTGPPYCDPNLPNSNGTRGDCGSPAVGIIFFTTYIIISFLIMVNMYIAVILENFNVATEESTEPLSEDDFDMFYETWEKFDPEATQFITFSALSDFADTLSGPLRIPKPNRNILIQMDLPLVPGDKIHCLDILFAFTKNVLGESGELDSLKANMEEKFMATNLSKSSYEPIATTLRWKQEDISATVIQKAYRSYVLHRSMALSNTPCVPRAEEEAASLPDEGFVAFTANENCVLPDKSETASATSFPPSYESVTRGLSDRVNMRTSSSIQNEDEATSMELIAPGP

[8] = molecular target: T1, Sodium channel protein type 10 subunit alpha; experiment: Activity at human recombinant Nav 1.8 channel expressed in HEK293 cells in inactivated state with prepulse voltage of -40 mV assessed as blockade of TTx-resistant sodium current at 0.003 uM; format: cell-based
[9] = molecular target: T1, Sodium channel protein type 10 subunit alpha; experiment: Activity at human recombinant Nav 1.8 channel expressed in HEK293 cells in resting state with prepulse voltage of -100 mV assessed as blockade of TTx-resistant sodium current at 0.01 uM; format: cell-based
[10] = molecular target: T1, Sodium channel protein type 10 subunit alpha; experiment: Activity at human recombinant Nav 1.8 channel expressed in HEK293 cells in resting state with prepulse voltage of -100 mV assessed as blockade of TTx-resistant sodium current at 0.003 uM; format: cell-based
[11] = molecular target: T1, Sodium channel protein type 10 subunit alpha; experiment: Inhibition of human recombinant Nav 1.8 channel expressed in HEK293 cells at 0.01 uM; format: cell-based
[12] = molecular target: T1, Sodium channel protein type 10 subunit alpha; experiment: Inhibition of human recombinant Nav 1.8 channel expressed in HEK293 cells at 0.003 uM; format: cell-based
[13] = molecular target: Sodium channel protein type 2 subunit alpha (Homo sapiens) (UniProt Q99250); experiment: Inhibition of human Nav1.2 channel at 3 uM
[14] = molecular target: Sodium channel protein type 2 subunit alpha (Homo sapiens) (UniProt Q99250); experiment: Inhibition of human Nav1.2 channel at 10 uM
[15] = molecular target: Sodium channel protein type 3 subunit alpha (Homo sapiens) (UniProt Q9NY46); experiment: Inhibition of human Nav1.3 channel at 3 uM
[16] = molecular target: Sodium channel protein type 3 subunit alpha (Homo sapiens) (UniProt Q9NY46); experiment: Inhibition of human Nav1.3 channel at 10 uM
[17] = molecular target: T2, Nav1.5 (sodium channel protein type 5 subunit alpha) (Homo sapiens, UniProt Q14524); experiment: Inhibition of human Nav1.5 channel at 3 uM
T2 sequence (Q14524 whole entry): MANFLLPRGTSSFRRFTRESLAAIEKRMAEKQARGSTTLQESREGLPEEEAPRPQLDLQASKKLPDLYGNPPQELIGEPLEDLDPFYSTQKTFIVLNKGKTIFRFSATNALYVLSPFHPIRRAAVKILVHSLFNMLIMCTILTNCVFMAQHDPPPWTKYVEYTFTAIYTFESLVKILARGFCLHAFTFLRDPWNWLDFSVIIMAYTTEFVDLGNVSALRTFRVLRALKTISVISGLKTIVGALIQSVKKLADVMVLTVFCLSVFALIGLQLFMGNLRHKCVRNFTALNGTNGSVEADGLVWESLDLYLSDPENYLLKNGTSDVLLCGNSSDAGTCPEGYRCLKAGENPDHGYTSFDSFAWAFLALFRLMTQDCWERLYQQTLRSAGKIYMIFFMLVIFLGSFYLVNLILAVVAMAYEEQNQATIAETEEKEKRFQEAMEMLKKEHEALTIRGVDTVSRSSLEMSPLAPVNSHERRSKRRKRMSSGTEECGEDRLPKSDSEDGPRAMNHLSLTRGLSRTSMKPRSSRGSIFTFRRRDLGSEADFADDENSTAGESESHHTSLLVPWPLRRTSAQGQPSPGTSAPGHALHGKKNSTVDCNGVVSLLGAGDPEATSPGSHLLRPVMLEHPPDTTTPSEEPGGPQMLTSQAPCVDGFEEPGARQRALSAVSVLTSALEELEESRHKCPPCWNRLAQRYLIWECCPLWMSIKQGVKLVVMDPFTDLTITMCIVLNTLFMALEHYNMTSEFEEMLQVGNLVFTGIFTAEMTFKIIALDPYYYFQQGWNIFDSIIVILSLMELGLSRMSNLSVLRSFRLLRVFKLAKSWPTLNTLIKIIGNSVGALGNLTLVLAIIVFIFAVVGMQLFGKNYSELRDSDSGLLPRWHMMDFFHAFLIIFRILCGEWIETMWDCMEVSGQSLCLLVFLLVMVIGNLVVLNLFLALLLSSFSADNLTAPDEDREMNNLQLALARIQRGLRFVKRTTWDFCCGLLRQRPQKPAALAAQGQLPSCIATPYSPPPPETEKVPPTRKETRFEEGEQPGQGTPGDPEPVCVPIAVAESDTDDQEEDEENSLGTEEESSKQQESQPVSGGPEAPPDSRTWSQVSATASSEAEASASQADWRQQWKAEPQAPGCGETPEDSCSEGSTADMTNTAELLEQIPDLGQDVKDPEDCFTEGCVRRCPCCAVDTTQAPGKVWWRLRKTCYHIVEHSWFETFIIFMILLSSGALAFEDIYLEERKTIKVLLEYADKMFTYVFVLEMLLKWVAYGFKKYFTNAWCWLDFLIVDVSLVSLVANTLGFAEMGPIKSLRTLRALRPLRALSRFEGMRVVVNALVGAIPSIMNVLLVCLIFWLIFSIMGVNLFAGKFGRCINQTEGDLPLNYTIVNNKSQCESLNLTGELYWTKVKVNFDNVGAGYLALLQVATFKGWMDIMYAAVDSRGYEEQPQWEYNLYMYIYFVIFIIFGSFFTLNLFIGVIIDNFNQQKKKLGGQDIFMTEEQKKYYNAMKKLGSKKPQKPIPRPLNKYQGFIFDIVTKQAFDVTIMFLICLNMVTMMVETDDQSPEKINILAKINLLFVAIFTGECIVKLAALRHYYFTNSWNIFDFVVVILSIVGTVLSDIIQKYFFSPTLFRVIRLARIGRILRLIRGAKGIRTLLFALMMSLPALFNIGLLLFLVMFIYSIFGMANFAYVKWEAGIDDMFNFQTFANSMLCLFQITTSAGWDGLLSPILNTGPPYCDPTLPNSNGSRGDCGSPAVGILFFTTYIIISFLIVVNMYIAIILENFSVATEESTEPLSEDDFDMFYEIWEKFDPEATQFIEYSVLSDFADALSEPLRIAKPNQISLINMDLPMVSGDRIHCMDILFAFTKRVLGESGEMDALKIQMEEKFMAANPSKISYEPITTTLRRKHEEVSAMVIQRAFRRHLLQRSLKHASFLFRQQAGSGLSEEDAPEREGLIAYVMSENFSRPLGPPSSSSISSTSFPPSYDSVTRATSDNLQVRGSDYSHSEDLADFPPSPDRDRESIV

[18] = molecular target: Sodium channel protein type 5 subunit alpha (Homo sapiens, UniProt Q14524); experiment: Inhibition of human Nav1.5 channel at 1 uM
[19] = molecular target: T2, Nav1.5 (sodium channel protein type 5 subunit alpha); experiment: Inhibition of human Nav1.5 channel at 10 uM
[20] = molecular target: Sodium channel protein type 9 subunit alpha (Homo sapiens) (UniProt Q15858); experiment: Inhibition of human Nav1.7 channel at 3 uM
[21] = molecular target: Sodium channel protein type 9 subunit alpha (Homo sapiens) (UniProt Q15858); experiment: Inhibition of human Nav1.7 channel at 10 uM
[22] = Half life in Sprague-Dawley rat; format: ADME, organism-based; conditions: in vivo
[23] = Volume of distribution at steady state in Sprague-Dawley rat; format: ADME, organism-based; conditions: in vivo, read-out: Vdss
[24] = Ratio of drug level in brain to plasma in Sprague-Dawley rat; format: ADME
Rattus norvegicus [25] = experiment: Antinociceptive activity in ip dosed Sprague-Dawley rat assessed as attenuation of mechanical allodynia in chung model of neuropathic pain; format: functional
Rattus norvegicus [26] = experiment: Antinociceptive activity in ip dosed Sprague-Dawley rat assessed as reduction of mechanical allodynia in Bennett model of neuropathic pain; format: functional; set-up: Activity: scale not given: the % may be the effect or the level left
Rattus norvegicus [27] = experiment: Antinociceptive activity in ip dosed Sprague-Dawley rat assessed as reduction of CFA-induced thermal hyperalgesia; format: functional; set-up: Activity: scale not given: the % may be the effect or the level left
Translocator protein [28] = molecular target: T3, Translocator protein (Homo sapiens, UniProt P30536); experiment: Binding affinity to peripheral benzodiazepine receptor at 10 uM
T3 sequence (P30536 whole entry): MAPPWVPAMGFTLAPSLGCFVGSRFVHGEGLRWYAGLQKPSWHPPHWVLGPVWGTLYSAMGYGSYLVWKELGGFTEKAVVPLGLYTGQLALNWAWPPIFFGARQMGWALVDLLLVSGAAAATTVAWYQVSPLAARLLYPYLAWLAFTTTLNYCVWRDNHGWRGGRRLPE

Translocator protein [29] = molecular target: T3, Translocator protein; experiment: Binding affinity to peripheral benzodiazepine receptor
[30] = molecular target: T4, Cholecystokinin receptor type A (Homo sapiens, UniProt P32238); experiment: Binding affinity to CCKAR
T4 sequence (P32238 whole entry): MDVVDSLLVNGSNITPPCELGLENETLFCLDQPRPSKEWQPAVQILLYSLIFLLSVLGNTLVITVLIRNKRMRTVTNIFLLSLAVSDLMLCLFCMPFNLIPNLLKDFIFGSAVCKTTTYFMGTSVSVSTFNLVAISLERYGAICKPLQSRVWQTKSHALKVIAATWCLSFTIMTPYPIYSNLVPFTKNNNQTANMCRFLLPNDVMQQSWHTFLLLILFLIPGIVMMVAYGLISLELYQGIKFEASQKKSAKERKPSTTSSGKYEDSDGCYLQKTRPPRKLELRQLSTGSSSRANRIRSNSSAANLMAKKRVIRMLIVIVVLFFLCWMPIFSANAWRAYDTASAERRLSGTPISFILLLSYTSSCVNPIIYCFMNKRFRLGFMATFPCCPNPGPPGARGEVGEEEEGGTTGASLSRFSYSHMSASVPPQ

D(1A) dopamine receptor [31] = molecular target: T5, D(1A) dopamine receptor (Homo sapiens, UniProt P21728); experiment: Binding affinity to dopamine D1 receptor
T5 sequence (P21728 whole entry): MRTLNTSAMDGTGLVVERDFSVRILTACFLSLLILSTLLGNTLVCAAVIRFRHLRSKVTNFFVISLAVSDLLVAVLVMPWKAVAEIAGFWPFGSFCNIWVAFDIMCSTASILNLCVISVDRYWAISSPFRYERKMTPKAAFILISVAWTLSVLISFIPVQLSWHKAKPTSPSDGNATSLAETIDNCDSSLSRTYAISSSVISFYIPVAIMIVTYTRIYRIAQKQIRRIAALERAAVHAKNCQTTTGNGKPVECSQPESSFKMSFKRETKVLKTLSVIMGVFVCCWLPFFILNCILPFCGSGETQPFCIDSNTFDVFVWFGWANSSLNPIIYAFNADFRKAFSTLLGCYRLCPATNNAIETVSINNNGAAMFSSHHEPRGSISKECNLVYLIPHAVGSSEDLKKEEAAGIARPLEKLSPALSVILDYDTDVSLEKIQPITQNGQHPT

[32] = Binding affinity to melatonin receptor 1
[33] = molecular target: T6, 5-hydroxytryptamine receptor 2A (Homo sapiens, UniProt P28223); experiment: Binding affinity to 5HT2A receptor
T6 sequence (P28223 whole entry): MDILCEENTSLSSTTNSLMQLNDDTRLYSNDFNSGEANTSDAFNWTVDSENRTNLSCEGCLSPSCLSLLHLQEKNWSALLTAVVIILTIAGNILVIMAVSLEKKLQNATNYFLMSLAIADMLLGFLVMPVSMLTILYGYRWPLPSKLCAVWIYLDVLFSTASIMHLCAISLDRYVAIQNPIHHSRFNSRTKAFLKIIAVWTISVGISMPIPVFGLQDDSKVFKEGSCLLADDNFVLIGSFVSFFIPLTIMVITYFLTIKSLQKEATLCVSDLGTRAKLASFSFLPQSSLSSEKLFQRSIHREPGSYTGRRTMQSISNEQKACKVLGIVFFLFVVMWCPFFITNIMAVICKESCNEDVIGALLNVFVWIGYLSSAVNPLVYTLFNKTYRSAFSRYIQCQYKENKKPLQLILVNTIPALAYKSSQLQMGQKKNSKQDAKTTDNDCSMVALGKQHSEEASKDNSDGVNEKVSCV

[34] = molecular target: T7, Cholecystokinin receptor type A (Homo sapiens) (UniProt P32238); conditions: 10 uM
T7 sequence (whole entry): T4 sequence (P32238 whole entry)

D(1A) dopamine receptor [35] = molecular target: T5, D(1A) dopamine receptor; conditions: 10 uM
[36] = molecular target: T6, 5-hydroxytryptamine receptor 2A; conditions: 10 uM
[37] = Rattus norvegicus, Sprague-Dawley, ip

`COc1cc(NC(=O)c2ccc(-c3ccc(Cl)cc3)o2)cc(OC)c1` gave an IC50 [1] of 0.85 µM, a microsomal CLint [2] of 140 µL/min/mg and an inhibition at 0.3 µM [3] of 71%. It also gave an inhibition at 0.1 µM [4] of 48%, an inhibition at 0.3 µM [5] of 48% and an inhibition at 0.1 µM [6] of 14%. The inhibition [7] was 59%, the inhibition [8] was 30% and the inhibition [9] was 19%. It also gave an inhibition [10] of 5%, an inhibition [11] of 59% and an inhibition [12] of 30%. The inhibition [13] was 41%, the inhibition [14] was 53% and the inhibition [15] was 52%. The inhibition [16] was 70%, the inhibition at 3 µM [17] was 44% and the IC50 [18] was over 2 µM. It also gave an inhibition at 10 µM [19] of 49%, an inhibition [20] of 42% and an inhibition [21] of 54%. The half-life [22] was 7.3 h, the Vd [23] was 6.4 L/kg and the Kp [24] was 1.1. It also gave an Activity (Rattus norvegicus [25]) of 70%, an ED50 (Rattus norvegicus [25]; [37]) of 47 mg/kg and an Activity (Rattus norvegicus [26]) of 56%. For the same compound, the ED50 (Rattus norvegicus [26]; [37]) was 85 mg/kg, the Activity (Rattus norvegicus [27]) was 64% and the ED50 (Rattus norvegicus [27]; [37]) was 41 mg/kg. The inhibition (Translocator protein [28]) was over 60%, the IC50 (Translocator protein [29]) was over 2 µM and the IC50 [30] was over 2 µM. It also gave an IC50 (D(1A) dopamine receptor [31]) of over 2 µM, an IC50 [32] of over 2 µM and an IC50 [33] of over 2 µM. The inhibition [34] was over 60%, the inhibition (D(1A) dopamine receptor [35]) was over 60% and the inhibition [36] was over 60%.
